{
  "source": "patent US7592336B2",
  "about": "“Hepatitis C virus inhibitors” (Bristol-Myers Squibb Company, priority 2005, dated 2009)",
  "key": {"[1]": {"tested_on": "T1, human pancreatic chymotrypsin", "T1 construct": "\"human pancreatic chymotrypsin\"", "assay": "Specificity assay, chymotrypsin", "assay_type": "biochemical", "details": "2 h enzyme-inhibitor pre-incubation; read-out: Chymotrypsin activity in the specificity assays (IC50)", "experimental": "The specificities of compounds of the present disclosure were determined against a variety of serine proteases: human neutrophil elastase (HNE), porcine pancreatic elastase (PPE) and human pancreatic chymotrypsin and one cysteine protease: human liver cathepsin B. In all cases a 96-well plate format protocol using calorimetric p-nitroaniline (pNA) substrate specific for each enzyme was used as described previously (PCT Patent Application No. WO 00/09543) with some modifications to the serine protease assays. All enzymes were purchased from Sigma while the substrates were from Bachem.\nEach assay included a 2 h enzyme-inhibitor pre-incubation at room temperature followed by addition of substrate and hydrolysis to 30% conversion as measured on a Spectramax Pro microplate reader. Compound concentrations varied from 100 to 0.4 μM depending on their potency. […]\nThe percentage of inhibition was calculated using the formula: [1−((UVinh−UVblank)/(UVctl−UVblank))]×100 […]"}, "[2]": {"target": "T2, HCV NS3/4A protease complex, H77 strain (Hepatitis C virus genotype 1a, UniProt P27958, C1454S/C1711G)", "T2 construct": "DNA encoding the recombinant HCV NS3/4A protease complex (amino acids 1027 to 1711) for these strains; inferred from pET21b vector and Ni-NTA purification; made in house; host or cells: Escherichia coli BL21 (DE3), pET21b", "T2 sequence (P27958 1027-1711 C1454S/C1711G, one chain of several)": "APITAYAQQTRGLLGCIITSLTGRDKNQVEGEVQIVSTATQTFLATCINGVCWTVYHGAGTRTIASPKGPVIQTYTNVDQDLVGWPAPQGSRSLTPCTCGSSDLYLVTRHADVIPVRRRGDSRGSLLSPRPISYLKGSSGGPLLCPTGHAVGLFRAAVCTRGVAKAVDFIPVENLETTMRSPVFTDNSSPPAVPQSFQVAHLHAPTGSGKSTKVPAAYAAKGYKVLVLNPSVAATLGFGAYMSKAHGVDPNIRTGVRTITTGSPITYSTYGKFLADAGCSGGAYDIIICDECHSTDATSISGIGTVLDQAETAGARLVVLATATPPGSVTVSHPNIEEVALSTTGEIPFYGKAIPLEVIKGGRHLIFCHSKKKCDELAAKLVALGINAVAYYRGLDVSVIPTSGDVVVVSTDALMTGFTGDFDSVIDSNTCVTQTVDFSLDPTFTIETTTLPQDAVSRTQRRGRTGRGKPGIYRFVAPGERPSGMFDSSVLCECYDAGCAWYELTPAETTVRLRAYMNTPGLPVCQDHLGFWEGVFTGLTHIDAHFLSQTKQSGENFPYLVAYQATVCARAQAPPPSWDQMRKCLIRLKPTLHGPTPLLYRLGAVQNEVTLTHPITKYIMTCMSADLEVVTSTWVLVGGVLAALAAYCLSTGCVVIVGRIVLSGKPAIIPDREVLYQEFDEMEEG", "assay": "FRET peptide assay to monitor HCV NS3/4A proteolytic activity (H77 strain)", "assay_type": "biochemical, HCV genotype 1a", "details": "read-out: IC50 against NS3/4A H77 strain", "excerpt": "HCV NS3 protease complexes, derived from the BMS strain, H77 strain or J4L6S strain, were generated, as described below. These purified recombinant proteins were generated for use in a homogeneous assay (see below) to provide an indication of how effective compounds of the present disclosure would be in inhibiting HCV NS3 proteolytic activity.\nThe H77 and J4L6S strains were used for production of recombinant NS3/4A protease complexes. DNA encoding the recombinant HCV NS3/4A protease complex (amino acids 1027 to 1711) for these strains were manipulated as described by P. Gallinari et al. (see Gallinari P, Paolini C, Brennan D, Nardi C, Steinkuhler C, De Francesco R. Biochemistry. 38(17):5620-32, (1999)). Briefly, a three-lysine solubilizing tail was added at the 3′-end of the NS4A coding region. The cysteine in the P1 position of the NS4A-NS4B cleavage site (amino acid 1711) was changed to a glycine to avoid the proteolytic cleavage of the lysine tag. Furthermore, a cysteine to serine mutation was introduced by PCR at amino acid position 1454 to prevent the autolytic cleavage in the NS3 helicase domain. […]"}},
  "data": [
    {"smiles": "C=C[C@@H]1C[C@]1(NC(=O)[C@@H]1C[C@@](O)(c2ccc(-c3ccccc3)cc2)CN1C(=O)[C@@H](NC(=O)OC(C)(C)C)C(C)(C)C)C(=O)NS(=O)(=O)C1CC1", "note": "[Compound 3]", "values": [
      {"measurement": "IC50", "setting": "[1]", "value": "> 100000", "unit": "nM"},
      {"measurement": "IC50", "setting": "[2]", "value": 1.6, "unit": "nM"}
    ]}
  ]
}
